Kd data for 107 compounds are collected here from PubChem BioAssay AID608 (Sanford-Burnham Center for Chemical Genomics, 2007).

Structures are written as SMILES. Activity calls are given as the source filed them. The rule behind the calls is not given here.

A word on the Kd: it is the equilibrium constant for the complex coming apart.

The target in this assay is Peptidyl-prolyl cis-trans isomerase FKBP1A (Homo sapiens) (UniProt P62942). Nature of the assay: small-molecule binding to FKBP12 – biophysical, NMR detection (AID 608). The settings on record: purified FKBP12.
Chain of Peptidyl-prolyl cis-trans isomerase FKBP1A (Homo sapiens) (P62942 whole entry, looked up): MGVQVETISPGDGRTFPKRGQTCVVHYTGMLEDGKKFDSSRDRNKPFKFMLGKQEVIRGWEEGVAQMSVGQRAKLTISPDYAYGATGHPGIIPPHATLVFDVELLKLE
`CC(C)CC(=O)NC1CCSC1=O` (configuration not stated): the Kd is > 4 mM (inactive).
In the case of `CC(=O)OCC(=O)[C@@]1(O)CCC2C3CC[C@@H]4C[C@H](OC(C)=O)CC[C@]4(C)C3C(=O)C[C@@]21C` (some centres not stated) it was > 4 mM (inactive); in that of `COc1cc2cc[n+]3cc4c(OC)c(OC)ccc4cc3c2cc1OC`, > 4 mM (inactive); in that of `O=C(NCc1ccccc1Cl)c1cnn2cccnc12`, > 4 mM (inactive).
As for `Cc1cccc(NC(=O)c2ccccc2C(=O)O)c1`, the figure is > 4 mM (inactive); as for `O=C1C=C(Nc2ccc(O)cc2)c2ccccc2C1=O`, > 4 mM (inactive); as for `Cc1ccc(N2C(=O)CC(=O)NC2=O)cc1`, > 4 mM (inactive).
`CCC[C@@H]1CCCCN1`: the Kd is > 4 mM (inactive).
In the case of `CN1CCN(CC(=O)Nc2ccccc2)CC1` it was > 4 mM (inactive); in that of `CC(=O)c1c(C)nc(-c2ccc(F)cc2)n1O`, > 4 mM (inactive); in that of `Cc1ccc(C(=O)Nc2c[nH]c(=O)[nH]c2=O)cc1`, > 4 mM (inactive).
Consider `CCCn1c(S(=O)(=O)O)nc2ccccc21`, for which the Kd was > 4 mM (inactive).
With `Cc1ccc(CN2CCNC(=O)C2CC(=O)O)o1` (configuration not stated), the Kd is > 4 mM (inactive).
In the case of `Nc1nnc(SCc2ccc(F)cc2Cl)s1` it was > 4 mM (inactive); in that of `C#CCCCCCCCCCCCC(=O)CC(O)COC(C)=O` (configuration not stated), > 4 mM (inactive).
In the case of `O=C(O)C1CCN(c2ccc(C(F)(F)F)cn2)CC1` it was > 4 mM (inactive); in that of `Nc1ccccc1OC(F)(F)F`, > 4 mM (inactive); in that of `O=C(O)CS(=O)(=O)c1ccccc1[N+](=O)[O-]`, > 4 mM (inactive).
As for `Cn1c(=O)c2c(ncn2CCNC2=NCCC2)n(C)c1=O`, the figure is > 4 mM (inactive); as for `CC(=O)OCC[C@H](C)CCC=C(C)C`, > 4 mM (inactive); as for `NC(CC(=O)O)c1ccccc1` (configuration not stated), > 4 mM (inactive).
For the compound `COc1nc(C#N)c(N2CCOCC2)o1`, the Kd was > 4 mM (inactive).
As for `Cc1cc(=O)c2ccccc2n1CC(N)=O`, the figure is > 4 mM (inactive); as for `O=c1oc2c(O)c(O)cc3c(=O)oc4c(O)c(O)cc1c4c23`, > 4 mM (inactive).
`CC12CN([N+](=O)[O-])C3(C(N)=O)CC1CCC23C` (configuration not stated): the Kd is > 4 mM (inactive).
As for `Nc1ccccc1C(=O)CC(N)C(=O)O` (configuration not stated), the figure is > 4 mM (inactive).
As for `Cc1cc(C)n(S(=O)(=O)c2cc(C)c(C)cc2C)n1`, the figure is > 4 mM (inactive); as for `NC(=O)CSc1nnc2ccc(-c3ccco3)nn12`, > 4 mM (inactive); as for `NS(=O)(=O)c1ccc2c3c(cccc13)C(=O)N2`, > 4 mM (inactive).
As for `CCc1nnc(NC(C)=O)s1`, the figure is > 4 mM (inactive); as for `O=C(O)C1CCCN1Cc1c[nH]c2ccccc12` (configuration not stated), > 4 mM (inactive).
For `Cc1ccc(C(=O)N2CCC(C(N)=O)CC2)cc1C`, the Kd was > 4 mM (inactive).
In the case of `CC(=O)NC(=S)Nc1ccc(S(N)(=O)=O)cc1` it was > 4 mM (inactive).
Consider `COCc1nn2c(N)c(C#N)cnc2c1-c1ccccc1`, for which the Kd is > 4 mM (inactive).
In the case of `Cc1ccc(-c2nc(-c3cccnc3)no2)c(C)c1` it was > 4 mM (inactive); in that of `O=[n+]1cc(-c2ccccc2)n([O-])c2c1CCC2`, > 4 mM (inactive); in that of `COc1ccc(/C=C2\SC(N)=NC2=O)cc1`, > 4 mM (inactive).
In the case of `O=C1NC(=O)/C(=C/c2ccc(O)cc2)N1` it was > 4 mM (inactive).
In the case of `NCc1nc2ccccc2s1` it was > 4 mM (inactive); in that of `O=C(Nc1cccc(Cl)c1Cl)c1ccccc1OCC(=O)N1CCOCC1`, > 4 mM (inactive).
As for `c1ccc2c(c1)nc(-c1cscn1)n2CCCCc1nn[nH]n1`, the Kd entry was “inactive”.
As for `Nc1cccc(S(=O)(=O)N2CCCCC2)c1`, the figure is > 4 mM (inactive); as for `Cc1cc(C(=O)N2CCC3(CC2)OCCO3)cs1`, > 4 mM (inactive).
As for `O=[N+]([O-])c1cccc2c1nnn2C(CO)OCCO` (configuration not stated), the figure is > 4 mM (inactive).
As for `COc1ccc(Cl)cc1NC(=O)c1ccco1`, the figure is > 4 mM (inactive).
For `CC(=O)n1c(N)nc2ccccc21`, the Kd was > 4 mM (inactive).
With `O=C(/C=C/c1ccccc1)c1ccc(O)cc1`, the Kd was > 4 mM (inactive).
Take `Cc1occc1C(=O)NCc1ccccn1`: the Kd was > 4 mM (inactive).
As for `CC(C)Oc1ccc(C2CC(=O)NNC2=O)cc1` (configuration not stated), the figure is > 4 mM (inactive); as for `Cc1cc(C)c(-c2cc(C(F)(F)F)no2)c(=O)[nH]1`, > 4 mM (inactive); as for `O=C(Nc1cccnc1)c1cnn2cccnc12`, > 4 mM (inactive).
As for `Cc1c(C(=O)OC(C)C)[nH]c2c1C(=O)CCC2`, the Kd is > 4 mM (inactive).
In the case of `Nc1nonc1-c1nc2ccccc2[nH]1` it was > 4 mM (inactive); in that of `Cc1ccc(-n2[nH]c(C)cc2=O)cc1`, > 4 mM (inactive); in that of `OCc1ccc2nsnc2c1`, > 4 mM (inactive).
In the case of `COc1cc(N)ncn1` it was > 4 mM (inactive).
As for `Cc1ccc(NC(=O)c2ccccc2)s1`, the figure is > 4 mM (inactive); as for `Cc1cc(NS(=O)(=O)Cc2ccccc2)no1`, > 4 mM (inactive).
Regarding `CN(C)c1oc(-c2ccccc2Cl)nc1C#N`, the Kd is > 4 mM (inactive).
Consider `CCn1cnc(C(=O)NC)c1C(=O)NC`, for which the Kd is > 4 mM (inactive).
Consider `O=c1cccc2n1CC1CC2CN2CCCC[C@@H]12` (some centres not stated), for which the Kd was > 4 mM (inactive).
As for `NC(=O)c1ccc(N2C(=O)C=CC2=O)cc1Cl`, the figure is > 4 mM (inactive); as for `Cc1occc1C(=O)N1CCN(S(C)(=O)=O)CC1`, > 4 mM (inactive).
Consider `O=C(NCc1cccc(Cl)c1)c1ccco1`, for which the Kd is > 4 mM (inactive).
As for `CCn1c(=O)cc(N2CCC3(CC2)OCCO3)[nH]c1=O`, the figure is > 4 mM (inactive); as for `[O-][n+]1c2ccccc2[n+]([O-])c2cc(O)ccc21`, > 4 mM (inactive).
In the case of `CC(=O)c1ccc[nH]1` it was > 4 mM (inactive).
In the case of `N#Cc1c[nH]n2c(=O)cc(Cc3ccccc3)nc12` it was > 4 mM (inactive); in that of `Nc1ccc(-c2cn3c(n2)SCC3)cc1`, > 4 mM (inactive).
`O=C(O)c1ccc(CN2CCCCC2)o1`: the Kd is > 4 mM (inactive).
As for `O=C(O)c1ccccc1C(=O)Nc1ccccc1`, the figure is > 4 mM (inactive); as for `NCCCCN=C(N)N`, > 4 mM (inactive); as for `O=C(C1COc2ccccc2O1)N1CCOCC1` (configuration not stated), “inactive”.
In the case of `CC1(C)Cc2nc3[nH]c(=S)[nH]c(=O)c3cc2CO1` it was > 4 mM (inactive).
As for `NS(=O)(=O)c1ccc2c(c1)OCCO2`, the figure is > 4 mM (inactive).
For the compound `O=C(Nn1cnnc1)c1ccccc1Cl`, the Kd is > 4 mM (inactive).
Take `Cc1cn2c(-c3cccnc3)nnc2s1`: the Kd was > 4 mM (inactive).
As for `CC(C)c1ccc(OCC(=O)N2CCOCC2)cc1`, the figure is 0.394 mM.
For the compound `O=c1ccc2ccc(O)cc2o1`, the Kd is > 4 mM (inactive).
Take `O=C(c1ccccc1)c1cncc(Br)c1`: the Kd was > 4 mM (inactive).
Regarding `Cn1cnc2c(Cl)ncnc21`, the Kd is > 4 mM (inactive).
In the case of `CCOc1ccc(NS(=O)(=O)N2CCCCC2)cc1` it was “inactive”; in that of `COc1ccccc1C(=O)NC1CCN(C)CC1`, > 4 mM (inactive).
In the case of `CC(=O)O[C@H]1CC[C@@]2(C)C(=CC(=O)C3C4CCC(C(C)CCCC(C)C)[C@@]4(C)CCC32)C1` (some centres not stated) it was > 4 mM (inactive); in that of `Cn1cc(Cl)c(C(=O)Nc2ccncc2)n1`, > 4 mM (inactive).
In the case of `Cc1cc(C)n2nc(C(=O)NCc3ccco3)nc2n1` it was > 4 mM (inactive); in that of `NS(=O)(=O)c1ccc(NC(=O)c2cccs2)cc1`, > 4 mM (inactive); in that of `COC(=O)[C@@H]1C(O)CC[C@H]2CN3CCc4c([nH]c5ccccc45)[C@@H]3C[C@@H]21` (some centres not stated), > 4 mM (inactive).
As to `Cc1nnc(SCc2ccc(F)cc2)s1`, the Kd was > 4 mM (inactive).
With `COC(=O)C1CCN(c2ccc(Cl)nn2)CC1`, the Kd is > 4 mM (inactive).
In the case of `CNC(=O)C(=O)Nc1ccc(F)cc1` it was > 4 mM (inactive); in that of `Cc1ccc(S(=O)(=O)/N=C2\NC(=O)CS2)cc1`, > 4 mM (inactive); in that of `COCC(=O)N1CCCc2ccccc21`, > 4 mM (inactive).
In the case of `OCc1ccc(CN2CCOCC2)cc1`, the Kd is > 4 mM (inactive).
On to `Nc1ccc2c(c1)OCCO2`, for which the Kd was > 4 mM (inactive).
In the case of `O=C(CC1NCCNC1=O)Nc1ccccc1` (configuration not stated) it was > 4 mM (inactive); in that of `O=NN1C(=O)c2ccccc2C1=O`, > 4 mM (inactive); in that of `CCOc1cc(S(=O)(=O)n2nc(C)cc2C)ccc1F`, > 4 mM (inactive).
In the case of `CC(C)(O)[C@@H]1[C@H]2OC(=O)[C@@H]1[C@]1(O)C[C@H]3O[C@]34C(=O)O[C@H]2[C@]14C` it was > 4 mM (inactive); in that of `CCN1C(=O)c2c(C)nc3ccccc3c2C1=O`, > 4 mM (inactive); in that of `CSc1n[nH]c(NCc2ccccc2)n1`, > 4 mM (inactive).
In the case of `O=c1c(O)c(-c2ccc(O)cc2O)oc2cc(O)cc(O)c12` it was > 4 mM (inactive); in that of `C=C1C(=O)O[C@@H]2C3OC3(C)CC/C=C(\C)CC[C@@H]12` (some centres not stated), > 4 mM (inactive).
Regarding `CN(C)c1ccc(/C=C2/NC(=S)NC2=O)cc1`, the Kd is > 4 mM (inactive).
As for `CS(C)=C1C(=O)NC(=O)N(c2ccccc2)C1=O`, the figure is > 4 mM (inactive).
As for `COc1ccc2c(c1)[nH]c1c(C)nccc12`, the figure is > 4 mM (inactive); as for `OCc1cc2ccccc2o1`, > 4 mM (inactive).
